Data reported in the NIST ThermoML archive (doi:10.1016/j.fluid.2005.06.010).

Test: xn = mol fraction of the nth substance listed
Settings: Fluid (supercritical or subcritical phases), Vibrating tube method

c1ccc2ccccc2c1 [naphthalene] + O=C=O
Settings	mass density [kg/m3]
323.07 K, 21967 kPa, x1 = 0.0049	814.97
323.07 K, 21991 kPa, x1 = 0.0235	840.23
323.07 K, 22035 kPa, x1 = 0.0093	823.39
323.07 K, 22055 kPa, x1 = 0.0144	828.6
323.07 K, 23011 kPa, x1 = 0.0144	836.78
323.07 K, 23014 kPa, x1 = 0.0049	824.8
323.07 K, 23024 kPa, x1 = 0.0235	848.46
323.07 K, 23037 kPa, x1 = 0.0093	832.27
323.07 K, 23975 kPa, x1 = 0.0144	844.56
323.07 K, 24012 kPa, x1 = 0.0235	855.79
323.07 K, 24013 kPa, x1 = 0.0093	840.35
323.07 K, 24015 kPa, x1 = 0.0049	833.51
323.07 K, 25007 kPa, x1 = 0.0235	862.81
323.07 K, 25048 kPa, x1 = 0.0093	848.36
323.08 K, 12879 kPa, x1 = 0.0173	702.14
323.08 K, 13019 kPa, x1 = 0.0173	705.93
323.08 K, 13536 kPa, x1 = 0.0173	719.07
323.08 K, 14042 kPa, x1 = 0.0173	730.6
323.08 K, 15088 kPa, x1 = 0.0173	750.8
323.08 K, 16012 kPa, x1 = 0.0173	766
323.08 K, 17038 kPa, x1 = 0.0173	780.79
323.08 K, 18011 kPa, x1 = 0.0173	793.15
323.08 K, 19021 kPa, x1 = 0.0173	804.74
323.08 K, 20018 kPa, x1 = 0.0173	815.17
323.08 K, 21012 kPa, x1 = 0.0173	824.64
323.08 K, 22051 kPa, x1 = 0.0173	833.83
323.08 K, 23040 kPa, x1 = 0.0173	842.05
323.08 K, 24014 kPa, x1 = 0.0173	849.58
323.08 K, 24688 kPa, x1 = 0.0173	854.56
323.11 K, 11710 kPa, x1 = 0.0065	608.68
323.11 K, 11886 kPa, x1 = 0.0065	618.53
323.11 K, 12112 kPa, x1 = 0.0065	630.1
323.11 K, 12597 kPa, x1 = 0.0065	651.76
323.11 K, 13175 kPa, x1 = 0.0065	672.88
323.11 K, 14114 kPa, x1 = 0.0065	700.29
323.11 K, 14946 kPa, x1 = 0.0065	719.89
323.11 K, 15974 kPa, x1 = 0.0065	740.17
323.11 K, 17091 kPa, x1 = 0.0065	758.86
323.11 K, 18018 kPa, x1 = 0.0065	772.31
323.11 K, 19119 kPa, x1 = 0.0065	786.49
323.11 K, 19947 kPa, x1 = 0.0065	796.13
323.11 K, 21027 kPa, x1 = 0.0065	807.77
323.11 K, 22102 kPa, x1 = 0.0065	818.31
323.11 K, 23244 kPa, x1 = 0.0065	828.6
323.11 K, 23905 kPa, x1 = 0.0065	834.23
323.11 K, 24345 kPa, x1 = 0.0065	837.73
323.13 K, 10131 kPa, x1 = 0.0038	441.7
323.13 K, 10204 kPa, x1 = 0.0038	452.21
323.13 K, 10370 kPa, x1 = 0.0038	473.73
323.13 K, 10546 kPa, x1 = 0.0038	495.19
323.13 K, 10713 kPa, x1 = 0.0038	513.93
323.13 K, 10899 kPa, x1 = 0.0038	532.86
323.13 K, 11125 kPa, x1 = 0.0038	553.43
323.13 K, 11428 kPa, x1 = 0.0038	577.02
323.13 K, 11636 kPa, x1 = 0.0038	591
323.13 K, 11975 kPa, x1 = 0.0038	610.86
323.13 K, 12255 kPa, x1 = 0.0038	625.25
323.13 K, 12628 kPa, x1 = 0.0038	641.9
323.13 K, 13011 kPa, x1 = 0.0038	656.88
323.13 K, 13569 kPa, x1 = 0.0038	675.56
323.13 K, 14021 kPa, x1 = 0.0038	688.77
323.13 K, 15003 kPa, x1 = 0.0038	713.06
323.13 K, 16030 kPa, x1 = 0.0038	733.89
323.13 K, 17020 kPa, x1 = 0.0038	750.95
323.13 K, 18020 kPa, x1 = 0.0038	766.06
323.13 K, 19025 kPa, x1 = 0.0038	779.54
323.13 K, 20018 kPa, x1 = 0.0038	791.52
323.13 K, 21018 kPa, x1 = 0.0038	802.54
323.13 K, 22016 kPa, x1 = 0.0038	812.65
323.13 K, 23026 kPa, x1 = 0.0038	822.13
323.13 K, 24020 kPa, x1 = 0.0038	830.83
323.13 K, 25003 kPa, x1 = 0.0038	838.9
327.94 K, 14128 kPa, x1 = 0.0198	700.18
327.94 K, 15025 kPa, x1 = 0.0198	721
327.94 K, 15984 kPa, x1 = 0.0198	739.45
327.94 K, 17037 kPa, x1 = 0.0198	756.72
327.94 K, 18024 kPa, x1 = 0.0198	770.78
327.94 K, 18966 kPa, x1 = 0.0198	782.81
327.94 K, 20021 kPa, x1 = 0.0198	794.93
327.94 K, 21050 kPa, x1 = 0.0198	805.66
327.94 K, 22039 kPa, x1 = 0.0198	815.2
327.94 K, 22982 kPa, x1 = 0.0198	823.62
327.94 K, 24044 kPa, x1 = 0.0198	832.44
327.94 K, 25048 kPa, x1 = 0.0198	840.3
327.98 K, 20991 kPa, x1 = 0.0276	810.47
327.98 K, 22012 kPa, x1 = 0.0276	819.85
327.98 K, 23092 kPa, x1 = 0.0276	829.12
327.98 K, 23996 kPa, x1 = 0.0276	836.33
327.98 K, 24882 kPa, x1 = 0.0276	843.08
327.99 K, 11253 kPa, x1 = 0.0049	476.13
327.99 K, 11541 kPa, x1 = 0.0049	502.2
327.99 K, 12000 kPa, x1 = 0.0049	538.29
327.99 K, 13016 kPa, x1 = 0.0049	598.5
327.99 K, 14020 kPa, x1 = 0.0049	639.93
327.99 K, 15009 kPa, x1 = 0.0049	671.01
327.99 K, 16051 kPa, x1 = 0.0049	696.96
327.99 K, 16996 kPa, x1 = 0.0049	716.42
327.99 K, 18024 kPa, x1 = 0.0049	734.62
327.99 K, 18955 kPa, x1 = 0.0394	812.97
327.99 K, 19015 kPa, x1 = 0.0049	750.05
327.99 K, 19491 kPa, x1 = 0.0394	818.42
327.99 K, 20015 kPa, x1 = 0.0394	823.07
327.99 K, 20048 kPa, x1 = 0.0049	764.24
327.99 K, 20960 kPa, x1 = 0.0394	831.55
327.99 K, 21025 kPa, x1 = 0.0049	776.39
327.99 K, 22010 kPa, x1 = 0.0394	840.78
327.99 K, 22049 kPa, x1 = 0.0049	788
327.99 K, 23023 kPa, x1 = 0.0049	798.13
327.99 K, 23040 kPa, x1 = 0.0394	848.69
327.99 K, 24009 kPa, x1 = 0.0394	855.98
327.99 K, 24079 kPa, x1 = 0.0049	808.33
327.99 K, 24881 kPa, x1 = 0.0394	861.95
328 K, 12017 kPa, x1 = 0.0093	567.42
328 K, 12517 kPa, x1 = 0.0093	596.95
328 K, 12987 kPa, x1 = 0.0173	652.9
328 K, 13018 kPa, x1 = 0.0144	638.84
328 K, 13022 kPa, x1 = 0.0093	621.23
328 K, 13497 kPa, x1 = 0.0144	656.68
328 K, 13513 kPa, x1 = 0.0173	670.93
328 K, 13916 kPa, x1 = 0.0235	697.69
328 K, 14000 kPa, x1 = 0.0144	672.81
328 K, 14016 kPa, x1 = 0.0173	685.86
328 K, 14033 kPa, x1 = 0.0093	659.25
328 K, 14510 kPa, x1 = 0.0235	712.23
328 K, 14988 kPa, x1 = 0.0235	722.58
328 K, 15031 kPa, x1 = 0.0173	710.98
328 K, 15041 kPa, x1 = 0.0093	688.02
328 K, 15044 kPa, x1 = 0.0144	700.6
328 K, 16003 kPa, x1 = 0.0235	741.93
328 K, 16024 kPa, x1 = 0.0093	710.6
328 K, 16029 kPa, x1 = 0.0173	731.18
328 K, 16033 kPa, x1 = 0.0144	721.87
328 K, 17009 kPa, x1 = 0.0144	739.63
328 K, 17031 kPa, x1 = 0.0093	730
328 K, 17033 kPa, x1 = 0.0173	748.41
328 K, 17036 kPa, x1 = 0.0235	758.59
328 K, 18019 kPa, x1 = 0.0235	772.44
328 K, 18021 kPa, x1 = 0.0144	755.54
328 K, 18047 kPa, x1 = 0.0173	763.56
328 K, 18057 kPa, x1 = 0.0093	747.01
328 K, 19027 kPa, x1 = 0.0235	785.16
328 K, 19029 kPa, x1 = 0.0173	776.56
328 K, 19034 kPa, x1 = 0.0144	769.62
328 K, 19042 kPa, x1 = 0.0093	761.34
328 K, 20006 kPa, x1 = 0.0093	774.02
328 K, 20013 kPa, x1 = 0.0173	788.3
328 K, 20015 kPa, x1 = 0.0235	796.35
328 K, 20048 kPa, x1 = 0.0144	782.23
328 K, 21013 kPa, x1 = 0.0093	785.89
328 K, 21023 kPa, x1 = 0.0235	806.8
328 K, 21036 kPa, x1 = 0.0173	799.42
328 K, 21043 kPa, x1 = 0.0144	793.46
328 K, 22023 kPa, x1 = 0.0235	816.35
328 K, 22030 kPa, x1 = 0.0144	803.66
328 K, 22034 kPa, x1 = 0.0093	796.9
328 K, 22064 kPa, x1 = 0.0173	809.6
328 K, 23029 kPa, x1 = 0.0173	818.53
328 K, 23041 kPa, x1 = 0.0235	825.35
328 K, 23052 kPa, x1 = 0.0093	807.08
328 K, 23065 kPa, x1 = 0.0144	813.57
328 K, 24012 kPa, x1 = 0.0144	821.99
328 K, 24037 kPa, x1 = 0.0235	833.62
328 K, 24065 kPa, x1 = 0.0093	816.43
328 K, 24082 kPa, x1 = 0.0173	827.53
328 K, 24770 kPa, x1 = 0.0144	828.36
328 K, 24838 kPa, x1 = 0.0173	833.72
328 K, 25066 kPa, x1 = 0.0235	841.58
328 K, 25067 kPa, x1 = 0.0093	825.06
328.08 K, 11635 kPa, x1 = 0.0065	518.62
